Where a name gives a salt, the structure may show the parent alone.

Results on 13 compounds are retold here after patent publication US10501482B2, “Compounds for treating spinal muscular atrophy” (Hoffmann-La Roche Inc., priority 2013, dated 2019).

Assay [1] deals with full length SMN2 minigene mRNA (FL SMN2mini) in HEK293H cells stably transfected with the SMN2-A minigene construct. The assay can be described thus: SMN2 minigene mRNA splicing RT-qPCR assay in cultured cells. It is filed as cell-based. As to conditions: Homo sapiens, HEK293-H, 24 hours, 7-point concentration curve, concentration giving 1.5-fold FL SMN2mini mRNA vs vehicle, read-out: EC1.5x minigene (EC1.5x concentration for production of full length SMN2 minigene mRNA). The protocol:
The reverse transcription-quantitative PCR-based (RT-qPCR) assay is used to quantify the level of the full length SMN2 minigene (referred to herein by the term “FL SMN2mini”) mRNA containing SMN2 exon 7 in a HEK293H cell line stably transfected with said minigene and treated with a test compound.
The SMN2-A minigene construct was prepared as described in International Patent Application WO2009/151546A1 page 145 paragraph [00400] to page 147 paragraph [00412](incl. FIG. 1 and FIG. 3 therein).
HEK293H cells stably transfected with the SMN2-A minigene construct (10,000 cells/well) are seeded in 200 μL of cell culture medium (DMEM plus 10% FBS, with 200 μg/mL hygromycin) in 96-well flat-bottom plates and the plate is immediately swirled to ensure proper dispersal of cells and the formation of an even monolayer of cells. Cells are allowed to attach for 6 hours. […] A solution of test compound (1 μL, 200× in DMSO) is added to each cell-containing well and the plate is incubated for 24 hours in a cell culture incubator (37° C., 5% CO2, 100% relative humidity). 2 replicates are prepared for each test compound concentration. The cells are then lysed in the Cells-To-Ct lysis buffer and the lysate is stored at −80° C.
Full length SMN2-A minigene and GAPDH mRNA are quantified using the primers and probes referenced in Table 1. Primer SMN Forward A (SEQ ID NO.1) hybridizes to a nucleotide sequence in exon 7 (nucleotide 22 to nucleotide 40), primer SMN Reverse A (SEQ ID NO.2) hybridizes to a nucleotide sequence in the coding sequence of Firefly luciferase, SMN Probe A (SEQ ID NO.3) hybridizes to a nucleotide sequence in exon 7 (nucleotide 50 to nucleotide 54) and exon 8 (nucleotide 1 to nucleotide 21). The combination of these three oligonucleotides detects only SMN1 or SMN2 minigenes (RT-qPCR) and will not detect endogenous SMN1 or SMN2 genes.
The SMN forward and reverse primers are used at final concentrations of 0.4 μM. The SMN probe is used at a final concentration of 0.15 μM. The GAPDH primers are used at final concentrations of 0.2 μM and the probe at 0.15 μM.
The SMN2-minigene GAPDH mix (15 μL total volume) is prepared by combining 7.5 μL of 2×RT-PCR buffer, 0.4 μL of 25×RT-PCR enzyme mix, 0.75 μL of 20×GAPDH primer-probe mix, 4.0075 μL of water, 2 μL of 10-fold diluted cell lysate, 0.06 μL of 100 μM SMN forward primer, 0.06 μL of 100 μM SMN reverse primer, and 0.225 μL of 100 μM SMN probe.
PCR is carried out at the following temperatures for the indicated time: Step 1: 48° C. (15 min); Step 2: 95° C. (10 min); Step 3: 95° C. (15 sec); Step 4: 60° C. (1 min); then repeat Steps 3 and 4 for a total of 40 cycles.
Each reaction mixture contains both SMN2-A minigene and GAPDH primers/probe sets (multiplex design), allowing simultaneous measurement of the levels of two transcripts.
The increase in the abundance of the FL SMN2mini mRNA relative to that in cells treated with vehicle control is determined from real-time PCR data using a modified ΔΔCt method (as described in Livak and Schmittgen, Methods, 2001, 25:402-8). The amplification efficiency E is calculated from the slope of the amplification curve for FL SMN2mini and GAPDH individually. The abundance of FL SMN2mini and GAPDH mRNA are then calculated as (1+E)^−Ct, where Ct is the threshold value for each amplicon. The abundance of FL SMN2mini mRNA is normalized to GAPDH mRNA abundance. The normalized FL SMN2mini mRNA abundance from test compound-treated samples is then divided by normalized FL SMN2mini mRNA abundance from vehicle-treated cells to determine the level of FL SMN2mini mRNA relative to vehicle control.
Table 2 provides EC1.5x concentrations for production of full length SMN2 minigene mRNA that was obtained from the 7-point concentration data generated according to the above procedure for particular compounds of the present invention.
A general note: Quantitative PCR measures a nucleic acid by following its amplification.

A further assay concerns SMN protein. The assay can be described thus: SMN protein assay (HTRF) in cultured SMA patient fibroblast cells. As to conditions: SMA Type 1 human fibroblasts GM03813, 48 hours; for EC1.5x SMN protein (EC1.5x concentration for SMN protein expression): 7-point concentration curve, concentration giving 1.5 times SMN protein vs vehicle; for max. fold increase (maximum fold increase of SMN protein): 7-point concentration data, fold vs vehicle control. The class given is cell-based. The protocol:
The SMN HTRF (homogeneous time resolved fluorescence) assay is used to quantify the level of SMN protein in SMA patient fibroblast cells treated with test compounds.
Cells are thawed and cultured in DMEM-10% FBS for 72 hours. Cells are trypsinized, counted and re-suspended to a concentration of 25,000 cells/mL in DMEM-10% FBS. The cell suspensions are plated at 5,000 cells per well in a 96 well microtiter plate and incubated for 3 to 5 hours. […] 1 μL of test compound solution is transferred to cell-containing wells and cells are incubated for 48 hours in a cell culture incubator (37° C., 5% CO2, 100% relative humidity). Triplicate samples are set up for each test compound concentration. After 48 hours, the supernatant is removed from the wells and 25 μL of the RIPA lysis buffer, containing protease inhibitors, is added to the wells and incubated with shaking at room temperature for 1 hour. 25 μL of the diluent is added and then 35 μL of the resulting lysate is transferred to a 384-well plate, where each well contains 5 μL of the antibody solution (1:100 dilution of anti-SMN d2 and anti-SMN kryptate in SMN reconstitution buffer). The plate is centrifuged for 1 minute to bring the solution to the bottom of the wells, then incubated overnight at room temperature. Fluorescence for each well of the plate at 665 nm and 620 nm is measured on an EnVision multilabel plate reader (Perkin-Elmer).
The normalized fluorescence signal is calculated for each sample, Blank and vehicle control well by dividing the signal at 665 nm by the signal at 620 nm. Normalizing the signal accounts for possible fluorescence quenching due to the matrix effect of the lysate. The ΔF value (a measurement of SMN protein abundance as a percent value) for each sample well is calculated by subtracting the normalized average fluorescence for the Blank control wells from the normalized fluorescence for each sample well, then dividing this difference by the normalized average fluorescence for the Blank control wells and multiplying the resulting value by 100. The ΔF value for each sample well represents the SMN protein abundance from test compound-treated samples. The ΔF value for each sample well is divided by the ΔF value for the vehicle control wells to calculate the fold increase in SMN protein abundance relative to the vehicle control. Table 3 provides EC1.5x concentrations for SMN protein expression that was obtained from the 7-point concentration data generated according to the above procedure for particular compounds of the present invention.
Table 4 provides the maximum fold increase of SMN protein that was obtained from the 7-point concentration data generated according to the above procedure for particular compounds of the present invention

With `Cc1cn2cc(NC(=O)c3ccc(N4CCNC(C)C4)cc3)nc2c(C)n1` (racemic) [Example 2, rac-N-(6,8-dimethyl-imidazo[1,2-a]-pyrazin-2-yl)-4-(3-methylpiperazin-1-yl)benzamide], in assay [1], the EC (1.5-fold) was 0.14 µM. In the assay with SMN protein, the “EC1.5x SMN protein (EC1.5x concentration for SMN protein expression)” value (“EC1.5x SMN protein” below) is 0.2984 µM and the “max. fold increase (maximum fold increase of SMN protein)” value (“max. fold increase” below) was 1.8878.

For `Cc1cn2cc(NC(=O)c3ccc(N4CCNC(C)C4)cc3F)nc2c(C)n1` (racemic) [Example 5, rac-N-(6,8-dimethyl-imidazo[1,2-a]-pyrazin-2-yl)-2-fluoro-4-(3-methyl-piperazin-1-yl)-benzamide], in assay [1], the EC (1.5-fold) was 0.0612 µM. Moreover, in the assay with SMN protein, the “EC1.5x SMN protein” value was 0.107 µM and the “max. fold increase” value is 1.7757.

`Cc1cn2cc(NC(=O)c3ccc(N4CCNC(C)C4)nc3)nc2c(C)n1` (racemic) [Example 7, rac-N-(6,8-dimethyl-imidazo[1,2-a]-pyrazin-2-yl)-6-(3-methyl-piperazin-1-yl)nicotinamide]: the EC (1.5-fold) in assay [1] was 0.142 µM. For the same compound, in the assay on SMN protein, the “EC1.5x SMN protein” value is 0.2834 µM and the “max. fold increase” value stood at 1.7936.

Take `Cc1cn2cc(NC(=O)c3ccc(N4CCNC(C)C4)cn3)nc2c(C)n1` (racemic) [Example 10, rac-N-(6,8-dimethyl-imidazo[1,2-a]-pyrazin-2-yl)-5-(3-methyl-piperazin-1-yl)picolinamide]: the EC (1.5-fold) in assay [1] stood at 0.665 µM. In the assay on SMN protein, the “EC1.5x SMN protein” value stood at 0.329 µM and the “max. fold increase” value turned out to be 1.735.

Turning to `Cc1cn2cc(NC(=O)c3ccc(N4CCNC(C)C4)nc3)ccc2n1` (racemic) [Example 12, rac-N-(2-methyl-imidazo[1,2-a]-pyridin-6-yl)-6-(3-methyl-piperazin-1-yl)nicotinamide], the EC (1.5-fold) in assay [1] turned out to be 0.312 µM. In addition, in the assay with SMN protein, the “EC1.5x SMN protein” value turned out to be 0.7037 µM and the “max. fold increase” value came to 1.6512.

Regarding `Cc1cn2cc(NC(=O)c3ccc(N4CCNC(C)C4)cn3)ccc2n1` (racemic) [Example 17, rac-N-(2-methyl-imidazo[1,2-a]-pyridin-6-yl)-5-(3-methyl-piperazin-1-yl)-picolinamide], the EC (1.5-fold) in assay [1] is 0.233 µM. In the assay on SMN protein, the “EC1.5x SMN protein” value was 0.5022 µM and the “max. fold increase” value stood at 1.6966.

Consider `Cc1cn2cc(NC(=O)c3ccc(N4CCNC(C)C4)cc3F)ccc2n1` (racemic) [Example 18, rac-2-fluoro-N-(2 methylimidazo-[1,2-a]pyridin-6-yl)-4(3-methyl-piperazin-1-yl)-benzamide], for which the EC (1.5-fold) in assay [1] amounted to 0.0523 µM. In the assay on SMN protein, the “EC1.5x SMN protein” value worked out at 0.1346 µM and the “max. fold increase” value was determined as 1.7677.

In the case of `Cc1cn2cc(NC(=O)c3ccc(N4CCNC(C)C4)nc3)cc(C(F)(F)F)c2n1` (racemic) [Example 20, rac-N-(2-methyl-8-(trifluoromethyl)-imidazo[1,2-a]-pyridin-6-yl)-6-(3-methyl-piperazin-1-yl)-nicotinamide], the EC (1.5-fold) in assay [1] worked out at 0.489 µM. Also, in the assay with SMN protein, the “EC1.5x SMN protein” value came to 0.8065 µM and the “max. fold increase” value came out at 1.7789.

`Cc1nc2c(F)cc(NC(=O)c3ccc(N4CCNC(C)C4)nc3)cc2o1` (racemic) [Example 27, rac-N-(4-Fluoro-2-methylbenzo-oxazol-6-yl)-6-(3-methylpiperazin-1-yl)nicotinamide]: the EC (1.5-fold) in assay [1] was determined as 0.0989 µM. Further, in the assay with SMN protein, the “EC1.5x SMN protein” value was found to be 0.3964 µM and the “max. fold increase” value was 1.6617.

In the case of `Cc1nc2c(F)cc(NC(=O)c3ccc(N4CCNC(C)C4)cc3)cc2o1` (racemic) [Example 29, rac-N-(4-fluoro-2-methylbenzo[d]-oxazol-6-yl)-4-(3-methylpiperazin-1-yl)benzamide], the EC (1.5-fold) in assay [1] was found to be 0.267 µM. In the assay on SMN protein, the “EC1.5x SMN protein” value worked out at 0.4618 µM and the “max. fold increase” value was determined as 1.632.

As for `Cc1nc2c(F)cc(NC(=O)c3ccc(N4CCN5CCC[C@H]5C4)cc3F)cc2o1` [Example 33, (S)-2-Fluoro-N-(4-fluoro-2-methyl-benzooxazol-6-yl)-4-(S)-hexahydro-pyrrolo[1,2-a]-pyrazin-2-yl-benzamide], in the assay with SMN protein, the “EC1.5x SMN protein” value amounted to 0.5703 µM and the “max. fold increase” value turned out to be 1.7541.

Consider `Cc1cn2cc(NC(=O)c3ccc(N4CCNCC4)nc3)cc(F)c2n1` [Example 41, N-(8-tluoro-2-methylimidazo-[1,2-a]pyridin-6-yl)-6-(piperazin-1-yl)nicotinamide dihydrochloride], for which, in the assay on SMN protein, the “EC1.5x SMN protein” value came out at 0.0508 µM and the “max. fold increase” value was 1.7973.

In the case of `CCOc1cc(N2CCNCC2)ncc1C(=O)Nc1cc(F)c2nc(C)cn2c1` [Example 70, 4-ethoxy-N-(8-fluoro-2-methylimidazo[1,2-a]pyridin-6-yl)-6-(piperazin-1-yl)nicotinamide], in the assay on SMN protein, the “EC1.5x SMN protein” value was 0.0187 µM and the “max. fold increase” value is 1.933.
